“And” between values parts separate entries of the source, which are not always exact repeats. Identical values can stand only once.
Key:
Assay in all cases: PamChip tyrosine kinase microarray
Assay type in all cases: biochemical
Conditions in all cases: 0.1 µM, HL60 lysate
ALK (Q9UM73) = molecular target: T1, ALK (Q9UM73) (Homo sapiens, UniProt Q9UM73)
T1 construct: purchased PamGene (PamChip PTK array, Upstream Kinase Analysis)
Description: (§1) The reproducible high potency of KIM-161 on leukemia cell lines was initially speculated to encompass Src tyrosine kinase inhibition. Even so, we also suspected that KIM-161 might be affecting other tyrosine kinases because the HL60 cells are not among the most Src-dependent highly proliferative cells ([Collins, 1987]). Therefore, a profiling of the kinase activities was performed after treatment with KIM-161 using PamChip® tyrosine kinase microarray. This analysis is based on incubation of cell lysate with 3D microarray that projects peptides specific for 143 tyrosine kinases. If a kinase is modified in the cells, it will be detected by phosphorylating its specific peptide in the microarray.
(§2) This test measured the activities of an array of tyrosine kinases of treated HL60 cells compared to the control (untreated cells) after incubation with KIM-161 for 48 h at concentrations of 0.001, 0.01, 0.1, 1.0, 10, and 50 µM. The log fold change (LFC) heat map was initially used to identify significant peptides affected at each concentration (Figure 5).
(§3) An Upstream Kinase Tool was used to generate a putative list of kinases responsible for phosphorylating the phosphosites on the PamChip®. It is an interpretation and is highly dependent on the contents of the underlying phosphorylation databases. Kinase score (Table 2) was used for ranking kinases based on their significance and specificity in terms of the set of peptides used for the corresponding kinase. Kinase statistics indicates the overall change of the peptide set that represents a certain kinase. Kinase statistics value of <0 indicates lower kinase activity in the lysate spiked with the compound and vice versa. Table 2 lists the 20 most changed kinases within treated HL60 cell lysates by 0.1 μM KIM-161.
(§4) Every compound had spiked into a leukemic (AML) cell line HL60 lysate at different concentrations (0.001, 0.01, 0.1, 1, 10, and 50 μM). In addition, DMSO had also spiked at a low concentration (2% v/v) to the HL60 lysate as the control. The samples were profiled on PamGene's tyrosine kinase (PTK) arrays in technical replicates, covering a total of 196 phosphorylation sites. The frozen leukemic HL60 cultured cell pellet was sent to PamGene. At PamGene, the cells were lysed in the presence of the lysis buffer and proteases inhibitor cocktail. The protein concentration was measured using the standard Bradford assay as per the PamGene SOPs. These lysates were further used for generating the PTK activity profiles. For spiking, KIM-161 was received in powder form and dissolved in DMSO at the PamGene facility, followed by storing it at −20°C in small aliquots. PamGene used its in-house bioinformatics toolbox in combination with other methods to generate the hypotheses of signaling pathways.

FLT4 (P35916) = molecular target: T2, FLT4 (P35916) (Homo sapiens, UniProt P35916)
T2 construct: purchased PamGene (PamChip PTK array, Upstream Kinase Analysis)
Description: as §1, §2, §3, §4

Fyn (P06241) = molecular target: T3, Fyn (P06241) (Homo sapiens, UniProt P06241)
T3 construct: purchased PamGene (PamChip PTK array, Upstream Kinase Analysis)
Description: as §1, §2, §3, §4

HER2 (P04626) = molecular target: T4, HER2 (P04626) (Homo sapiens, UniProt P04626)
T4 construct: purchased PamGene (PamChip PTK array, Upstream Kinase Analysis)
Description: as §1, §2, §3, §4

JAK3 (P52333) = molecular target: T5, JAK3 (P52333) (Homo sapiens, UniProt P52333)
T5 construct: purchased PamGene (PamChip PTK array, Upstream Kinase Analysis)
T5 sequence (P52333 1-1124): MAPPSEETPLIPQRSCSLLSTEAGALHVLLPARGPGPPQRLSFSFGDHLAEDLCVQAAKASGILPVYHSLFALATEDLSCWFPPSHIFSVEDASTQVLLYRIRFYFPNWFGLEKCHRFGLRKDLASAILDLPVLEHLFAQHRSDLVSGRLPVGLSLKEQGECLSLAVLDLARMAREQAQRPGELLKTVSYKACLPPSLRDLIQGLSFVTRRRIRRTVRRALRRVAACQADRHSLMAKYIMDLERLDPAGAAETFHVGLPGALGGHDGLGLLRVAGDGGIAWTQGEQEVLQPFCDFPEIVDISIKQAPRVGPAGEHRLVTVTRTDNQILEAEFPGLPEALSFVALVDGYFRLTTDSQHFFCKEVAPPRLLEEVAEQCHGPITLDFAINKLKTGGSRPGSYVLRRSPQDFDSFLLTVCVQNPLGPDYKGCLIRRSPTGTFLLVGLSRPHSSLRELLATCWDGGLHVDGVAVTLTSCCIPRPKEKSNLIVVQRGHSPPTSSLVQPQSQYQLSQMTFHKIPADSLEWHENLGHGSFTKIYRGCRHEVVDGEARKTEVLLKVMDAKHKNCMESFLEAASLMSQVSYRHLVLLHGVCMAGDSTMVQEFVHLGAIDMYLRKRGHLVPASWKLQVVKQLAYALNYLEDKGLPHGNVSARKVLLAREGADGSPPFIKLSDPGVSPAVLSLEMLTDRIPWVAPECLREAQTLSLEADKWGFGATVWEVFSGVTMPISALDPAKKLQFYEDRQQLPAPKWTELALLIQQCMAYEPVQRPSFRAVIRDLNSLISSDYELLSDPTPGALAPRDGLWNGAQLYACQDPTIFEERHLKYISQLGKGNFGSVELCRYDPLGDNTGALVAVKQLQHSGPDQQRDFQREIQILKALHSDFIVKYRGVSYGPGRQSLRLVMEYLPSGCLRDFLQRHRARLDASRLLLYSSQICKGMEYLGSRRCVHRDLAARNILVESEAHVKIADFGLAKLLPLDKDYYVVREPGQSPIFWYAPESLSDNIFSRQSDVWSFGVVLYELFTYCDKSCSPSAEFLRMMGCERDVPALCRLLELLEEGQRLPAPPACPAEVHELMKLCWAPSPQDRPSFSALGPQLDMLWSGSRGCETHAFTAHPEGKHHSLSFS
Description: as §1, §2, §3, §4

LTK (P29376) = molecular target: T6, LTK (P29376) (Homo sapiens, UniProt P29376)
T6 construct: purchased PamGene (PamChip PTK array, Upstream Kinase Analysis)
Description: as §1, §2, §3, §4

PDGFR[alpha] (P16234) = molecular target: T7, PDGFR[alpha] (P16234) (Homo sapiens, UniProt P16234)
T7 construct: purchased PamGene (PamChip PTK array, Upstream Kinase Analysis)
Description: as §1, §2, §3, §4

Ret (P07949) = molecular target: T8, Ret (P07949) (Homo sapiens, UniProt P07949)
T8 construct: purchased PamGene (PamChip PTK array, Upstream Kinase Analysis)
Description: as §1, §2, §3, §4

T2 sequence (P35916 25-1363): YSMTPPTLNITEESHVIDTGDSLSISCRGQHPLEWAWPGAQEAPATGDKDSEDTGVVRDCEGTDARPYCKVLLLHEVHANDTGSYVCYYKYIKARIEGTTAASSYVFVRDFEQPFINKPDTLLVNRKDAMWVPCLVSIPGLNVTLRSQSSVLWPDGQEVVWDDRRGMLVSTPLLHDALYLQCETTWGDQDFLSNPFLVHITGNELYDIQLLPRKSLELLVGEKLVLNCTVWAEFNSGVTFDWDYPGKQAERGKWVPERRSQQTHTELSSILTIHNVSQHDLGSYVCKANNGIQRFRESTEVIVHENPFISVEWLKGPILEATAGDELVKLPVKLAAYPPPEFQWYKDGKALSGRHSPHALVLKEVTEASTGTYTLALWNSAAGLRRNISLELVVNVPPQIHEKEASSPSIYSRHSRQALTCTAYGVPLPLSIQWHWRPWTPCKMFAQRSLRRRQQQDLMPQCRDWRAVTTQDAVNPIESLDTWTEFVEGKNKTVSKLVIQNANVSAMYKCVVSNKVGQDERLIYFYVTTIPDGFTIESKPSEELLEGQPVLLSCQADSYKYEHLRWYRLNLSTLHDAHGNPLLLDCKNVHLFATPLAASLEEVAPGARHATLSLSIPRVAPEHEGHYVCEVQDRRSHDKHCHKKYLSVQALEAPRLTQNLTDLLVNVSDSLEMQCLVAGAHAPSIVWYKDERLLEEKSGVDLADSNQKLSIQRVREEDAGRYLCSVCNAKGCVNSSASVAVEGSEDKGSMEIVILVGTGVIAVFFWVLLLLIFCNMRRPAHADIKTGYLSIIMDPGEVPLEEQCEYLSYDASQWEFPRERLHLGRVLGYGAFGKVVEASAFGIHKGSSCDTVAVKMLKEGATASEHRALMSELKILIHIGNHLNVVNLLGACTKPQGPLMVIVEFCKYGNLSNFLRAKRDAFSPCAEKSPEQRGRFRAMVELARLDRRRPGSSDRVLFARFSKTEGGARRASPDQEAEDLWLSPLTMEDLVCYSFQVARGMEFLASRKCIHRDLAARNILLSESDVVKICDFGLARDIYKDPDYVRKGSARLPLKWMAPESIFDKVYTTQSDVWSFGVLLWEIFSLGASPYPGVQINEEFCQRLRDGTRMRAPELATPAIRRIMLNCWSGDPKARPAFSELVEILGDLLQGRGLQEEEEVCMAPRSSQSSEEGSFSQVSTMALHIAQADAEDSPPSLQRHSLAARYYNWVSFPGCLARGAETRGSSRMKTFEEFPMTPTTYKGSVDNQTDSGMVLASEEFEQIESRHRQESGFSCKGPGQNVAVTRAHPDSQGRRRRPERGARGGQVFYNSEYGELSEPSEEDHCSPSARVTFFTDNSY
T3 sequence (P06241 whole entry): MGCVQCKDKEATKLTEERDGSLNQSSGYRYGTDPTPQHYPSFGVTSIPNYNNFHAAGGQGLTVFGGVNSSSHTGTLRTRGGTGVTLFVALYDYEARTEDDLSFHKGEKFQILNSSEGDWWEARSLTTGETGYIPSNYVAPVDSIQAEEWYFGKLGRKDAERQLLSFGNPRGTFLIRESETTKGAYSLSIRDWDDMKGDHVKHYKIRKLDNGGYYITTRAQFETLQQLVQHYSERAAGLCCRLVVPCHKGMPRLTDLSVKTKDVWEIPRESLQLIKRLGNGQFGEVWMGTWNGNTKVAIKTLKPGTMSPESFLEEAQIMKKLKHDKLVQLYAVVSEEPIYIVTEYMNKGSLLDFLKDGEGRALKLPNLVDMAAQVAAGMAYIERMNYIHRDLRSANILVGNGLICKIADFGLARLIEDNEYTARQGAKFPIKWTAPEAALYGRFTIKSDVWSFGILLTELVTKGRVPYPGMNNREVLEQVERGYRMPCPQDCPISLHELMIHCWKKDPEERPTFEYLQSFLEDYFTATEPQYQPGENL
T1 sequence (Q9UM73 19-1620): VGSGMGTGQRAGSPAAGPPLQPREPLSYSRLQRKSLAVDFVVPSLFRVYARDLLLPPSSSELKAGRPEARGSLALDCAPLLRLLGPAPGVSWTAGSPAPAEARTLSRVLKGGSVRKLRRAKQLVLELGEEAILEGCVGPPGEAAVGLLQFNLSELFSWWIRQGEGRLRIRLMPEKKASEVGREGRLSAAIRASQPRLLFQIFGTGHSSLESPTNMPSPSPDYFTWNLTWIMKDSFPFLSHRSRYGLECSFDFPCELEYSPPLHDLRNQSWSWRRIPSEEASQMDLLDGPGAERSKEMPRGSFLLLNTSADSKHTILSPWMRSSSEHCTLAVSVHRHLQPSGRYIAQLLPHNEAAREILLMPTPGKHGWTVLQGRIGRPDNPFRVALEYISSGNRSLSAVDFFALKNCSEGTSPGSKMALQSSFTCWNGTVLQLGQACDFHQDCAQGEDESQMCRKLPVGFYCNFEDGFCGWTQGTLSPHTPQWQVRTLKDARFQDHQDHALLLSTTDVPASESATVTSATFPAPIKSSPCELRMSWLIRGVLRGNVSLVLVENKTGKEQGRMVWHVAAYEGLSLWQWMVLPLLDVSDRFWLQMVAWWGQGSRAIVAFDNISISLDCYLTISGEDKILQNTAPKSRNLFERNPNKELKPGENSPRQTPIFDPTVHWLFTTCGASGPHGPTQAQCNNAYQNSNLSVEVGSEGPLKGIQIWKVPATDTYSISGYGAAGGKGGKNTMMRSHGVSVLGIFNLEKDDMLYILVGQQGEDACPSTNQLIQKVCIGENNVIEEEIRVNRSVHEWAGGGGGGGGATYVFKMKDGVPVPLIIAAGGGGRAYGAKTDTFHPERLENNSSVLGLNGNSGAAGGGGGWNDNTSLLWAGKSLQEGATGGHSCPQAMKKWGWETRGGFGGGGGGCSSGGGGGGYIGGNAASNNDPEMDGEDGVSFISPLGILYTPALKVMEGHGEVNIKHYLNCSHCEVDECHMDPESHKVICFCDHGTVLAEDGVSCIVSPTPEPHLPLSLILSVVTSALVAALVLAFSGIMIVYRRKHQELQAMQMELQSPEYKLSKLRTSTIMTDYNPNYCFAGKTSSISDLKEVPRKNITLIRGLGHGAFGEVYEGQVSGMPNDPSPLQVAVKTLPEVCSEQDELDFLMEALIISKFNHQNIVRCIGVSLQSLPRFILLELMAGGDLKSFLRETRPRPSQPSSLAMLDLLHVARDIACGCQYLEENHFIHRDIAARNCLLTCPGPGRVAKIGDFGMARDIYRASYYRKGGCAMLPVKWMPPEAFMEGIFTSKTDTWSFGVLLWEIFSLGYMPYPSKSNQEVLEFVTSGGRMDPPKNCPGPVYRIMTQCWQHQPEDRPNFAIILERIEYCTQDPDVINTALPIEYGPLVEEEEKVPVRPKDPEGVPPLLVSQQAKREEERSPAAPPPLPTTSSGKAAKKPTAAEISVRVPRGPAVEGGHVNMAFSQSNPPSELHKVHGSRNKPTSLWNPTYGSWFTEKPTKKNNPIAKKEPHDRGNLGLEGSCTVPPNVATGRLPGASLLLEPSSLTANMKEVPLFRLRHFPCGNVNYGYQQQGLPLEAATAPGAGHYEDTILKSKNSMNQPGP
T4 sequence (P04626 23-1255): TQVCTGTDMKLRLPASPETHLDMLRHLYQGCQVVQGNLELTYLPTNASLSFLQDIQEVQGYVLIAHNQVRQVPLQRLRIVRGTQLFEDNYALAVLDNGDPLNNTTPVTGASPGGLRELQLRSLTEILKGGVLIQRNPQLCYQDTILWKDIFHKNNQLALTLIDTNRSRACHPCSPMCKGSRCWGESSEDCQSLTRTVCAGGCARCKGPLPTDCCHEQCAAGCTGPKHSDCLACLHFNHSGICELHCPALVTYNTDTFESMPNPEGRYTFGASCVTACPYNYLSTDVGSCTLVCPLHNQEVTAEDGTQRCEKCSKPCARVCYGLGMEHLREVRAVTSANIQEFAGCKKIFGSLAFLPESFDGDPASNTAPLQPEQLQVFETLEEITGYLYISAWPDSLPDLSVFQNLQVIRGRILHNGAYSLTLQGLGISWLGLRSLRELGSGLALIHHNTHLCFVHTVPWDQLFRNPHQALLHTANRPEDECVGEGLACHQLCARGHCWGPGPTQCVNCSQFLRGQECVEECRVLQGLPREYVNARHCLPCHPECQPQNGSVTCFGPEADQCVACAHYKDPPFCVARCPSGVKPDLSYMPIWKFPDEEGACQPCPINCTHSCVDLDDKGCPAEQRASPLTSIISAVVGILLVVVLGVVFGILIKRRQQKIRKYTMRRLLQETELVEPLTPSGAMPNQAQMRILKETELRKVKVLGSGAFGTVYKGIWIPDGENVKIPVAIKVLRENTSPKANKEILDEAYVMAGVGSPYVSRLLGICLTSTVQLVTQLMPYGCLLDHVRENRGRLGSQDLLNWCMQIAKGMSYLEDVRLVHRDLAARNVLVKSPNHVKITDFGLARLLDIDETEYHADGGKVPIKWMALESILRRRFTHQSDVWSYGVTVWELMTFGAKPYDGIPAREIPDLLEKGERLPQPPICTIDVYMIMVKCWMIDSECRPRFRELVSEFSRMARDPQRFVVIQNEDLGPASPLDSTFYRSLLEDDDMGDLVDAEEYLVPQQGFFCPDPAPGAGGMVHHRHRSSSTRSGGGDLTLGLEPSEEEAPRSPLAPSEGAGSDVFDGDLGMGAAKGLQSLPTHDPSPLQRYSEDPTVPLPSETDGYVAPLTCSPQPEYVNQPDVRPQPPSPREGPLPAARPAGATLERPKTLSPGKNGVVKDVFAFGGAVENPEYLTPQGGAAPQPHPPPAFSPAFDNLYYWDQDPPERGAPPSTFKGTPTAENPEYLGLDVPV

With `COc1ccc(/C=C2\N=C(C)N(c3ccc(CC(=O)NCc4ccccc4)cc3)C2=O)cc1` [Compound 4c, (Z)-N-Benzyl-2-(4-(4-(4-methoxybenzylidene)-2-methyl-5-oxo-4,5-dihydro-1H-imidazol-1-yl)phenyl)acetamide] the “Mean Final score (Kinase score)” value (ALK (Q9UM73)) was 2.186, the “Mean Kinase Statistic” value (ALK (Q9UM73)) was -1.125 and the “Mean Significance Score” value (ALK (Q9UM73)) was 2.048. For the same molecule, the “Mean Specificity Score” value (ALK (Q9UM73)) was 0.1497, the “Mean Significance Score” value (FLT4 (P35916)) was 2.048 and the “Mean Specificity Score” value (FLT4 (P35916)) was 1.142. For the same molecule, the “Mean Final score (Kinase score)” value (FLT4 (P35916); listed as KIM-161) was 3.15 and 3.152, the “Mean Final score (Kinase score)” value (Fyn (P06241)) was 2.45 and the “Mean Kinase Statistic” value (Fyn (P06241)) was -1.236. The “Mean Significance Score” value (Fyn (P06241)) was 2.048, the “Mean Specificity Score” value (Fyn (P06241)) was 0.4193 and the “Mean Final score (Kinase score)” value (HER2 (P04626)) was 2.103. For the same molecule, the “Mean Kinase Statistic” value (HER2 (P04626)) was -1.031, the “Mean Significance Score” value (HER2 (P04626)) was 1.88 and the “Mean Specificity Score” value (HER2 (P04626)) was 0.08906. For the same molecule, the “Mean Final score (Kinase score)” value (JAK3 (P52333)) was 1.746, the “Mean Kinase Statistic” value (JAK3 (P52333)) was -1.15 and the “Mean Significance Score” value (JAK3 (P52333)) was 1.478. The “Mean Specificity Score” value (JAK3 (P52333)) was 0.2986, the “Mean Final score (Kinase score)” value (LTK (P29376)) was 1.968 and the “Mean Kinase Statistic” value (LTK (P29376)) was -1.055. For the same molecule, the “Mean Significance Score” value (LTK (P29376)) was 1.724, the “Mean Specificity Score” value (LTK (P29376)) was 0.1654 and the “Mean Final score (Kinase score)” value (PDGFR[alpha] (P16234)) was 1.95. For the same molecule, the “Mean Kinase Statistic” value (PDGFR[alpha] (P16234)) was -1.208, the “Mean Significance Score” value (PDGFR[alpha] (P16234)) was 1.701 and the “Mean Specificity Score” value (PDGFR[alpha] (P16234)) was 0.3388. The “Mean Significance Score” value (Ret (P07949)) was 2.048, the “Mean Specificity Score” value (Ret (P07949)) was 1.108 and the “Mean Final score (Kinase score)” value (Ret (P07949); listed as KIM-161) was 3.14 and 3.143.

Source: publication PMC8766756, “Insights on Cancer Cell Inhibition, Subcellular Activities, and Kinase Profile of Phenylacetamides Pending 1H-Imidazol-5-One Variants” (Frontiers in Pharmacology, 2022)
